≈ marks a conversion by molar mass, not a printed value. Calls of active or inactive are those of the source. The calls are words filed in the database; no cut-off is given here.
Key:
Candida albicans [1] = test: Antifungal activity against fluconazole/ITC-resistant Candida albicans ATCC MYA-1237 measured after 48 hrs by CLSI M27-A3 protocol based method; format: functional; details: ATCC MYA-1237, 48 h
Listeria monocytogenes = test: Antibacterial activity against Listeria monocytogenes; format: functional, organism-based
Candida albicans [2] = test: Antifungal activity against fluconazole/ITC-resistant Candida albicans ATCC MYA-1003 measured after 48 hrs by CLSI M27-A3 protocol based method; format: functional; details: ATCC MYA-1003, 48 h
Aspergillus terreus = test: Antifungal activity against Aspergillus terreus ATCC MYA-3633 measured after 48 hrs by CLSI M38-A2 protocol based method; format: functional; details: ATCC MYA-3633, 48 h
Pichia kudriavzevii = test: Antifungal activity against Candida krusei ATCC 6258 measured after 48 hrs by CLSI M27-A3 protocol based method; format: functional; details: ATCC 6258, 48 h
Candida albicans [3] = test: Antifungal activity against fluconazole/ITC-susceptible Candida albicans ATCC MYA-2876 measured after 48 hrs by CLSI M27-A3 protocol based method; format: functional; details: ATCC MYA-2876, 48 h
Enterococcus = test: Antibacterial activity against vancomycin-resistant Enterococcus; format: functional, organism-based
Nakaseomyces glabratus = test: Antifungal activity against Candida glabrata ATCC 2001 measured after 48 hrs by CLSI M27-A3 protocol based method; format: functional; details: CBS 138, 48 h
Candida parapsilosis = test: Antifungal activity against Candida parapsilosis ATCC 22019 measured after 48 hrs by CLSI M27-A3 protocol based method; format: functional; details: Lodderomyces parapsilosis, ATCC 22019, 48 h
Candida albicans [4] = test: Antifungal activity against fluconazole/ITC-resistant Candida albicans ATCC 10231 measured after 48 hrs by CLSI M27-A3 protocol based method; format: functional; details: ATCC 10231, 48 h
Aspergillus flavus = test: Antifungal activity against Aspergillus flavus ATCC MYA-3631 measured after 48 hrs by CLSI M38-A2 protocol based method; format: functional; details: ATCC MYA-3631, 48 h
Candida albicans [5] = test: Antifungal activity against fluconazole/ITC-susceptible Candida albicans ATCC MYA-2310 measured after 48 hrs by CLSI M27-A3 protocol based method; format: functional; details: ATCC MYA-2310, 48 h
Candida albicans [6] = test: Antifungal activity against fluconazole/ITC-resistant Candida albicans ATCC 64124 measured after 48 hrs by CLSI M27-A3 protocol based method; format: functional; details: ATCC 64124, 48 h
Candida albicans [7] = test: Antifungal activity against fluconazole/ITC-resistant Candida albicans ATCC 90819 measured after 48 hrs by CLSI M27-A3 protocol based method; format: functional; details: ATCC 90819, 48 h
Staphylococcus aureus = test: Antibacterial activity against methicillin-resistant Staphylococcus aureus; format: functional, organism-based
Aspergillus nidulans = test: Antifungal activity against Aspergillus nidulans ATCC 38163 measured after 48 hrs by CLSI M38-A2 protocol based method; format: functional; details: ATCC 38163, 48 h

| Structure (SMILES) | MIC (Candida albicans [1]) [µg/mL] | Activity (Listeria monocytogenes) | MIC (Candida albicans [2]) [µg/mL] | MIC (Aspergillus terreus) [µg/mL] | MIC (Pichia kudriavzevii) [µg/mL] | MIC (Candida albicans [3]) [µg/mL] | Activity (Enterococcus) | MIC (Nakaseomyces glabratus) [µg/mL] | MIC (Candida parapsilosis) [µg/mL] | MIC (Candida albicans [4]) [µg/mL] | MIC (Aspergillus flavus) [µg/mL] | MIC (Candida albicans [5]) [µg/mL] | MIC (Candida albicans [6]) [µg/mL] | MIC (Candida albicans [7]) [µg/mL] | Activity (Staphylococcus aureus) | MIC (Aspergillus nidulans) [µg/mL] |
| --- | --- | --- | --- | --- | --- | --- | --- | --- | --- | --- | --- | --- | --- | --- | --- | --- |
| COc1cccc(N/N=C(\C)c2ccc(-c3ccc(/C(C)=N/Nc4cccc(OC)c4)cc3)cc2)c1 | 31.3 (≈ 65.4 µM) | inactive | 3.9 (≈ 8.15 µM) | > 31.3 | 0.98 (≈ 2.05 µM) | 15.6 (≈ 32.6 µM) | inactive | 15.6 (≈ 32.6 µM) | 15.6 (≈ 32.6 µM) | 0.98 (≈ 2.05 µM) | > 31.3 | 15.6 (≈ 32.6 µM) | 0.98 (≈ 2.05 µM) | 31.3 (≈ 65.4 µM) | inactive | > 31.3 |
| Clc1ccc(N/N=C/c2ccc(-c3cccc(/C=N/Nc4ccc(Cl)cc4)c3)cc2)cc1 | 15.6 (≈ 34 µM) | inactive | 3.9 (≈ 8.49 µM) | > 31.3 | 31.3 (≈ 68.1 µM) | 15.6 (≈ 34 µM) | inactive | 15.6 (≈ 34 µM) | 3.9 (≈ 8.49 µM) | 7.8 (≈ 17 µM) | > 31.3 | 31.3 (≈ 68.1 µM) | 7.8 (≈ 17 µM) | 15.6 (≈ 34 µM) | inactive | > 31.3 |
| COc1ccc(N/N=C(\C)c2ccc(-c3ccc(/C(C)=N/Nc4ccc(OC)cc4)cc3)cc2)cc1 | 7.8 (≈ 16.3 µM) | inactive | 7.8 (≈ 16.3 µM) | > 31.3 | 15.6 (≈ 32.6 µM) | 15.6 (≈ 32.6 µM) | inactive | 7.8 (≈ 16.3 µM) | > 31.3 | 15.6 (≈ 32.6 µM) | > 31.3 | 15.6 (≈ 32.6 µM) | 15.6 (≈ 32.6 µM) | 31.3 (≈ 65.4 µM) | inactive | > 31.3 |
| CC[C@H](C)C[C@H](C)CCCCCCCCC(=O)N[C@H]1C[C@@H](O)[C@@H](NCCN)NC(=O)[C@@H]2[C@@H](O)CCN2C(=O)[C@H]([C@H](O)CCN)NC(=O)[C@H]([C@H](O)[C@@H](O)c2ccc(O)cc2)NC(=O)[C@@H]2C[C@@H](O)CN2C(=O)[C@H]([C@@H](C)O)NC1=O [CASPOFUNGIN] | 0.24 (≈ 0.22 µM) |  | 0.48 (≈ 0.439 µM) | > 31.3 | 0.48 (≈ 0.439 µM) | 0.06 (≈ 0.0549 µM) |  | 0.06 (≈ 0.0549 µM) | 1.95 (≈ 1.78 µM) | 0.975 (≈ 0.892 µM) | > 31.3 | 0.12 (≈ 0.11 µM) | 0.24 (≈ 0.22 µM) | 0.12 (≈ 0.11 µM) |  | > 31.3 |
| N=C(N)N/N=C/c1ccc(-c2ccc(/C=N/NC(=N)N)cc2)cc1 | > 31.3 |  | 15.6 (≈ 48.4 µM) | > 31.3 | 15.6 (≈ 48.4 µM) | > 31.3 |  | > 31.3 | 3.9 (≈ 12.1 µM) | 31.3 (≈ 97.1 µM) | > 31.3 | > 31.3 | > 31.3 | > 31.3 |  | > 31.3 |
| Fc1cccc(N/N=C/c2ccc(-c3ccc(/C=N/Nc4cccc(F)c4F)cc3)cc2)c1F | > 31.3 | inactive | > 31.3 | > 31.3 | > 31.3 | > 31.3 | inactive | > 31.3 | > 31.3 | 31.3 (≈ 67.7 µM) | > 31.3 | > 31.3 | > 31.3 | > 31.3 | inactive | > 31.3 |
| CC(C)(C)N/N=C/c1ccc(-c2ccc(/C=N/NC(C)(C)C)cc2)cc1 | 31.3 (≈ 89.3 µM) | inactive | > 31.3 | > 31.3 | 31.3 (≈ 89.3 µM) | > 31.3 | inactive | 15.6 (≈ 44.5 µM) | > 31.3 | 31.3 (≈ 89.3 µM) | > 31.3 | 31.3 (≈ 89.3 µM) | 31.3 (≈ 89.3 µM) | > 31.3 | inactive | 31.3 (≈ 89.3 µM) |
| Fc1ccccc1N/N=C/c1ccc(-c2ccc(/C=N/Nc3ccccc3F)cc2)cc1 | > 31.3 | inactive | 15.6 (≈ 36.6 µM) | > 31.3 | 3.9 (≈ 9.14 µM) | 15.6 (≈ 36.6 µM) | inactive | > 31.3 | > 31.3 | 3.9 (≈ 9.14 µM) | > 31.3 | > 31.3 | > 31.3 | 31.3 (≈ 73.4 µM) | inactive | 31.3 (≈ 73.4 µM) |
| Fc1cc(F)cc(N/N=C/c2ccc(-c3cccc(/C=N/Nc4cc(F)cc(F)c4)c3)cc2)c1 | 31.3 (≈ 67.7 µM) | inactive | 31.3 (≈ 67.7 µM) | > 31.3 | > 31.3 | 31.3 (≈ 67.7 µM) | inactive | > 31.3 | > 31.3 | 3.9 (≈ 8.43 µM) | > 31.3 | > 31.3 | 15.6 (≈ 33.7 µM) | > 31.3 | inactive | > 31.3 |
| Brc1ccc(N/N=C/c2ccc(-c3cccc(/C=N/Nc4ccc(Br)cc4)c3)cc2)cc1 | 7.8 (≈ 14.2 µM) | inactive | 31.3 (≈ 57.1 µM) | > 31.3 | > 31.3 | 31.3 (≈ 57.1 µM) | inactive | 7.8 (≈ 14.2 µM) | > 31.3 | 31.3 (≈ 57.1 µM) | 31.3 (≈ 57.1 µM) | > 31.3 | 31.3 (≈ 57.1 µM) | > 31.3 | inactive | > 31.3 |
| COc1ccccc1N/N=C(\C)c1ccc(-c2ccc(/C(C)=N/Nc3ccccc3OC)cc2)cc1 | > 31.3 | inactive | 31.3 (≈ 65.4 µM) | > 31.3 | 31.3 (≈ 65.4 µM) | > 31.3 | inactive | > 31.3 | 31.3 (≈ 65.4 µM) | 15.6 (≈ 32.6 µM) | > 31.3 | > 31.3 | > 31.3 | > 31.3 | inactive | > 31.3 |
| C/C(=N\NC(=N)N)c1ccc(-c2ccc(/C(C)=N/NC(=N)N)cc2)cc1 | 15.6 (≈ 44.5 µM) |  | 15.6 (≈ 44.5 µM) | > 31.3 | 3.9 (≈ 11.1 µM) | 15.6 (≈ 44.5 µM) |  | 7.8 (≈ 22.3 µM) | 1.95 (≈ 5.56 µM) | 3.9 (≈ 11.1 µM) | > 31.3 | 15.6 (≈ 44.5 µM) | 3.9 (≈ 11.1 µM) | 3.9 (≈ 11.1 µM) |  | 15.6 (≈ 44.5 µM) |
